Laboratory results reported in PubChem BioAssay AID1963861 (Molecular Pharmacology Branch, DTP, NCI, 2024).
pIC50: −log10 of the molar value.

Tested on: 885724-159-R-J1-PDC KRAS PDC multicell spheroid viability
Test: Anticancer human tumor 885724-159-R-J1-PDC patient-derived pancreatic adenocarcinoma cell line growth inhibition [KRAS2]
Settings: for viability, T/C: stronger effect = lower value
Text: Multicellular complex tumor spheroid response to RAS pathway inhibitors in combination with a targeted agents in patient-derived cell lines with oncogenic KRAS variants from multiple cancer types
A high-throughput screen of multi-cell type tumor spheroids was designed to identify active combinations of targeted small molecules and KRAS pathway inhibitors. Complex spheroids include a stromal component modeled by human endothelial cells (HUVEC) and fibroblasts modeled by human mesenchymal stem cells (MSCs). The concentration ranges selected for each drug and investigational agent were based upon clinically achievable concentrations if the clinical Cmax of the agent was known.
Compounds. The drugs and investigational agents: BI-3406 (NSC825286), BAY-293 (NSC824723), batoprotafib (TNO155; NSC825523), sotorasib (AMG 510; NSC818433), MRTX1257 (NSC819558), elimusertib (BAY 1895344; NSC800525), molibresib (GSK525762; NSC774829), temuterkib (LY3214996; NSC803410), venetoclax (NSC766270), alisertib (NSC759677), olaparib (NSC753686), talazoparib (NSC767125), erdafitinib (NSC781556), ipatasertib (NSC767898), cabozantinib (NSC761068), nintedanib (NSC756659), abemaciclib (NSC768073), docetaxel (NSC628503), trametinib (NSC758246), and sapanisertib (NSC764658) were obtained from the National Cancer Institute (NCI) Developmental Therapeutics Program Chemical Repository. The FDA-approved anticancer drug set is available from the Developmental Therapeutics Program. […] The stock solutions were prepared in dimethyl sulfoxide (DMSO, Sigma-Aldrich, St. Louis, MO, cat. D2650) at 800-fold the tested concentration and stored at -70 degrees C prior to their use. All drugs and investigational agents were tested over a range starting from a high concentration at or near the clinical Cmax and decreasing in half-log increments. If the clinical Cmax for an agent had not been determined, the highest concentration tested was 10 microM.
Cell Culture. All cells were maintained in an incubator at 37 degrees C and 5% CO2 with 95% humidity. The PDC lines were cultured according to standard operating procedures established by the NCI PDMR (https://pdmr.cancer.gov/sops/default.htm). Briefly, all PDCs were thawed and cultured in Matrigel-coated flasks prepared with a working solution of 1X Ham's F-12 nutrient mix, without supplementation (Invitrogen, Waltham, MA, cat. 11765054), 100 U/mL penicillin-streptomycin (Invitrogen, cat. 15140122), and 2.5% Matrigel (Corning Inc., Corning, NY, cat. 354248) for the first three passages. All PDCs were cultured in complete DMEM/F-12 media containing advanced DMEM/F-12 (Invitrogen, cat. 12634028), 4.9% defined fetal bovine serum, heat inactivated (HyClone Laboratories Inc., Logan, UT, cat. SH30070.03HI), 389 ng/mL hydrocortisone (Sigma-Aldrich, cat. H4001), 9.7 ng/mL human EGF recombinant protein (Invitrogen, cat. PHG0313), 23.4 microg/mL adenine (Sigma-Aldrich, cat. A2786), 97.3 U/mL penicillin-streptomycin (Invitrogen, cat. 15140122), 1.9 mM L-glutamine (Invitrogen, cat. 25030081), and 9.7 microM Y-27632 dihydrochloride (Tocris Bioscience, Bristol, United Kingdom, cat. 1254). The PDCs were cultured in complete DMEM/F12 media without 9.7 microM Y-27632 dihydrochloride for at least two passages prior to the screen. The established cell line HOP-62 was cultured in RPMI 1640 medium, HEPES (Invitrogen, cat. 22400105) with 10% defined fetal bovine serum (HyClone Laboratories Inc., cat. SH30070.03) and 2 mM L-glutamine (Invitrogen, cat. 25030081). The pooled donor HUVEC were cultured in endothelial cell growth medium 2 (PromoCell, Heidelberg, Germany, cat. C-22011) and the hMSC were cultured in mesenchymal stem cell growth medium 2 (PromoCell, cat. C-28009). For all experiments, HUVEC and hMSC were used at passages </=5, while the malignant cell lines were used at passages </=15. […]

[1] = curve of first compound, second compound 0.1 µM
[2] = curve of first compound, second compound 0.316 µM
[3] = curve of first compound, second compound 1 µM
[4] = curve of first compound, second compound 3.16 µM
[5] = curve of first compound, second compound 10 µM
[6] = second compound 0.1 µM, first compound 0.01 µM
[7] = second compound 0.1 µM, first compound 0.0316 µM
[8] = second compound 0.1 µM, first compound 0.1 µM
[9] = second compound 0.1 µM, first compound 0.316 µM
[10] = second compound 0.1 µM, first compound 1 µM
[11] = second compound 0.316 µM, first compound 0.01 µM
[12] = second compound 0.316 µM, first compound 0.0316 µM
[13] = second compound 0.316 µM, first compound 0.1 µM
[14] = second compound 0.316 µM, first compound 0.316 µM
[15] = second compound 0.316 µM, first compound 1 µM
[16] = second compound 1 µM, first compound 0.01 µM
[17] = second compound 1 µM, first compound 0.0316 µM
[18] = second compound 1 µM, first compound 0.1 µM
[19] = second compound 1 µM, first compound 0.316 µM
[20] = second compound 1 µM, first compound 1 µM
[21] = second compound 3.16 µM, first compound 0.01 µM
[22] = second compound 3.16 µM, first compound 0.0316 µM
[23] = second compound 3.16 µM, first compound 0.1 µM
[24] = second compound 3.16 µM, first compound 0.316 µM
[25] = second compound 3.16 µM, first compound 1 µM
[26] = second compound 10 µM, first compound 0.01 µM
[27] = second compound 10 µM, first compound 0.0316 µM
[28] = second compound 10 µM, first compound 0.1 µM
[29] = second compound 10 µM, first compound 0.316 µM
[30] = second compound 10 µM, first compound 1 µM
[31] = second compound 0.1 µM, first compound 3.16 µM
[32] = second compound 0.316 µM, first compound 3.16 µM
[33] = second compound 1 µM, first compound 3.16 µM
[34] = second compound 3.16 µM, first compound 3.16 µM
[35] = second compound 10 µM, first compound 3.16 µM
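Note: spheroids exposed to agents for 7 days before readout.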

Compound	pIC50 [1]	pIC50 [2]	pIC50 [3]	pIC50 [4]	pIC50 [5]	viability, T/C [7] [%]	viability, T/C [8] [%]	viability, T/C [9] [%]	viability, T/C [10] [%]	viability, T/C [12] [%]	viability, T/C [13] [%]	viability, T/C [14] [%]	viability, T/C [15] [%]	viability, T/C [17] [%]	viability, T/C [18] [%]	viability, T/C [19] [%]	viability, T/C [20] [%]	viability, T/C [22] [%]	viability, T/C [23] [%]	viability, T/C [24] [%]	other results
CCN1CCN(Cc2ccc(Nc3ncc(F)c(-c4cc(F)c5nc(C)n(C(C)C)c5c4)n3)nc2)CC1 + CC1OCC2(CCN(c3cnc(Sc4ccnc(N)c4Cl)c(N)n3)CC2)C1N	< 6.00	< 6.00	< 6.00	< 6.00	< 6.00	78	74.3	79.8	76.9	71.6	71.2	81.2	81	71.4	63.5	75.5	73.7	68.7	61.5	68.1	viability, T/C (second compound 0.1 µM, first compound 0.00316 µM): 88.2%; viability, T/C [6]: 94.5%; viability, T/C (second compound 0.316 µM, first compound 0.00316 µM): 80%; viability, T/C [11]: 76.3%; viability, T/C (second compound 1 µM, first compound 0.00316 µM): 82.7%; viability, T/C [16]: 77.5%; viability, T/C (second compound 3.16 µM, first compound 0.00316 µM): 73.8%; viability, T/C [21]: 73%; viability, T/C [25]: 71%; viability, T/C (second compound 10 µM, first compound 0.00316 µM): 70.9%; viability, T/C [26]: 68.1%; viability, T/C [27]: 63.2%; viability, T/C [28]: 59.6%; viability, T/C [29]: 66%; viability, T/C [30]: 63.2%
CC1COCCN1c1cc(-c2ccnn2C)c2ccnc(-c3ccn[nH]3)c2n1 (configuration not stated) + CNCc1ccccc1-c1csc(C(C)Nc2nc(C)nc3cc(OC)c(OC)cc23)c1	< 5.50	< 5.50	< 5.50	> 8.00	> 8.00	85.3	80.1	61.4	58.8	90.4	73.8	64.2	57.8	84.4	75.1	64.7	55.7	0.77	0.58	0.86	viability, T/C [6]: 108%; viability, T/C [31]: 58.8%; viability, T/C [11]: 108%; viability, T/C [32]: 57.4%; viability, T/C [16]: 106%; viability, T/C [33]: 56.8%; viability, T/C [21]: 2.14%; viability, T/C [25]: 1.55%; viability, T/C [34]: 1.97%; viability, T/C [26]: 0.21%; viability, T/C [27]: 0.23%; viability, T/C [28]: 0.26%; viability, T/C [29]: 0.24%; viability, T/C [30]: 0.22%; viability, T/C [35]: 0.28%
CC1COCCN1c1cc(-c2ccnn2C)c2ccnc(-c3ccn[nH]3)c2n1 (configuration not stated) + C=CC(=O)N1CCN(c2nc(=O)n(-c3c(C)ccnc3C(C)C)c3nc(-c4c(O)cccc4F)c(F)cc23)C(C)C1	< 5.50	5.56	5.62	< 5.50	6.65	92.4	69.2	56.2	49.2	84.6	68.2	58.3	49	83.8	66.9	60.2	47.8	92.1	66.2	58.9	viability, T/C [6]: 111%; viability, T/C [31]: 55.2%; viability, T/C [11]: 104%; viability, T/C [32]: 51.5%; viability, T/C [16]: 106%; viability, T/C [33]: 51.4%; viability, T/C [21]: 93.7%; viability, T/C [25]: 49.4%; viability, T/C [34]: 54.1%; viability, T/C [26]: 71.7%; viability, T/C [27]: 65.7%; viability, T/C [28]: 55.9%; viability, T/C [29]: 46.7%; viability, T/C [30]: 45.6%; viability, T/C [35]: 42.7%
COC(=O)c1ccc2c(C(=Nc3ccc(N(C)C(=O)CN4CCN(C)CC4)cc3)c3ccccc3)c(O)[nH]c2c1 + COc1cc2nc(C)nc(NC(C)c3cc(N)cc(C(F)(F)F)c3)c2cc1OC1CCOC1	5.64	5.61	5.70	5.75	> 7.50	121	127	120	118	107	114	102	103	103	106	107	98.1	93.8	98.6	104	viability, T/C [31]: 23.7%; viability, T/C (second compound 0.1 µM, first compound 10 µM): 1.54%; viability, T/C [32]: 34.5%; viability, T/C (second compound 0.316 µM, first compound 10 µM): 0.96%; viability, T/C [33]: 17%; viability, T/C (second compound 1 µM, first compound 10 µM): 1.09%; viability, T/C [25]: 95.8%; viability, T/C [34]: 3.95%; viability, T/C (second compound 3.16 µM, first compound 10 µM): 0.79%; viability, T/C [27]: 46.7%; viability, T/C [28]: 48.8%; viability, T/C [29]: 19.4%; viability, T/C [30]: 8.2%; viability, T/C [35]: 0.75%; viability, T/C (second compound 10 µM, first compound 10 µM): 0.36%
COc1cc2nccc(Oc3ccc(NC(=O)C4(C(=O)Nc5ccc(F)cc5)CC4)cc3)c2cc1OC																					viability, T/C (compound 0.0316 µM): 111% [middle of 5 runs]; viability, T/C (compound 0.1 µM): 108% [middle of 5 runs]; viability, T/C (compound 0.316 µM): 110% [middle of 5 runs]; viability, T/C (compound 1 µM): 102% [middle of 5 runs]; viability, T/C (compound 3.16 µM): 74.1% [middle of 5 runs]; viability, T/C (compound 10 µM): 70.5% [middle of 5 runs]; pIC50 (curve of compound): < 5.00
